Assay results as given in patent US20240409585A1, “MACROCYCLIC IMMUNOMODULATORS” (priority 2021, published 2024).
Values belong to the molecule of their own block, whether it stands above or below them. Bridge positions count the residues as written; N and C are the ends. Square brackets hold non-standard residues; d marks the D form. Peptide text beside a SMILES is read from it. * marks the point of attachment. Phe(4-COOH) = N[C@@H](Cc1ccc(C(=O)O)cc1)C(=O)O; Phe(4-CH2NH2) = NCc1ccc(C[C@H](N)C(=O)O)cc1; Bip = N[C@@H](Cc1ccc(-c2ccccc2)cc1)C(=O)O; Phe(3-CN) = N#Cc1cccc(C[C@H](N)C(=O)O)c1; Phe(3-Me) = Cc1cccc(C[C@H](N)C(=O)O)c1; 1Nal = N[C@@H](Cc1cccc2ccccc12)C(=O)O; 4Pal = N[C@@H](Cc1ccncc1)C(=O)O; Cha = N[C@@H](CC1CCCCC1)C(=O)O; Cit = NC(=O)NCCC[C@H](N)C(=O)O; Carboxymethyl = O=C(O)C*; NMeA = CN[C@@H](C)C(=O)O; Nle = CCCC[C@H](N)C(=O)O; Orn = NCCC[C@H](N)C(=O)O; Dab = NCC[C@H](N)C(=O)O; Dap = NC[C@H](N)C(=O)O

Biological target: T1, PE-labeled human PD-L1-Ig binding to Jurkat cell line over-expressing human PD-1 (Jurkat-PD-1) (Homo sapiens, UniProt Q15116)
T1 construct: expressed in transfected cells; host or cells: Jurkat
Assay: Jurkat-PD-1 Cell Binding High-Content Screening Assay (CBA): Method 1
Conditions: Jurkat-hPD-1 cells, PE-labeled PD-L1-Ig 20 nM final; read-out: Jurkat HPDL1 PD1 IC50 (uM) (Method 1)

T1 sequence (Q15116 25-288): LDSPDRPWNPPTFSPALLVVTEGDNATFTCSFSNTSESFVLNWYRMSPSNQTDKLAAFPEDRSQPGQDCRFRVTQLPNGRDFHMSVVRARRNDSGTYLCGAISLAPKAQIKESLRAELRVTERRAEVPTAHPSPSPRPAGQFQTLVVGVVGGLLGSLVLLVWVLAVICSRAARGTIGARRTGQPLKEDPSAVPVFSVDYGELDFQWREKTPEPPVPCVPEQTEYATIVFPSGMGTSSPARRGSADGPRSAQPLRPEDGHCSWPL

SMILES: Cc1cccc(C[C@@H]2NC(=O)[C@H](CC(=O)O)NC(=O)[C@H](Cc3ccc(OCC(=O)O)cc3)NC(=O)[C@H](CC(N)=O)NC(=O)CSC[C@@H](C(N)=O)NC(=O)[C@H](CCCN)NC(=O)[C@H](C(C)C)NC(=O)[C@H](CC3CCCCC3)NC(=O)[C@H](CCN)NC(=O)[C@@H](CC(C)C)NC(=O)[C@H](C)N(C)C(=O)[C@H](Cc3ccc(OCC(=O)O)cc3)NC(=O)[C@H](Cc3ccc(-c4ccccc4)cc3)NC(=O)[C@H](Cc3ccc(OCC(=O)O)cc3)NC2=O)c1 [Compound 1668] ({CH2CO}-NY(Carboxymethyl)D[Phe(3-Me)]Y(Carboxymethyl)[Bip]Y(Carboxymethyl)[NMeA][dL][Dab][Cha]V[Orn]C-NH2; thioether N-14)
- IC50: 0.05 µM

SMILES: CC(C)C[C@@H]1NC(=O)[C@H](CCN)NC(=O)[C@@H](CC(C)C)NC(=O)[C@H](C)N(C)C(=O)[C@H](CCCNC(=N)N)NC(=O)[C@H](Cc2ccc(-c3ccccc3)cc2)NC(=O)[C@H](C(C)C)NC(=O)[C@H](Cc2c[nH]c3ccccc23)NC(=O)[C@H](CC(=O)O)NC(=O)[C@H](Cc2ccc(OCC(=O)O)cc2)NC(=O)[C@H](CN)NC(=O)CSC[C@@H](C(=O)N[C@@H](C)C(N)=O)NC(=O)[C@H]([C@@H](C)O)NC(=O)[C@H](C(C)C)NC1=O [Compound 1450] ({CH2CO}-[Dap]Y(Carboxymethyl)DWV[Bip]R[NMeA][dL][Dab]LVTCA-NH2; thioether N-14)
- IC50: 0.06 µM

SMILES: CC(C)C[C@@H]1NC(=O)[C@H](CCCNC(=N)N)NC(=O)[C@@H](CC(C)C)NC(=O)[C@H](C)N(C)C(=O)[C@H](CCCNC(=N)N)NC(=O)[C@H](Cc2ccc(-c3ccccc3)cc2)NC(=O)[C@H](C(C)C)NC(=O)[C@H](Cc2cccc3ccccc23)NC(=O)[C@H](CC(=O)O)NC(=O)[C@H](Cc2ccc(O)cc2)NC(=O)[C@H](CC(N)=O)NC(=O)CSC[C@@H](C(=O)N[C@@H](C)C(N)=O)NC(=O)[C@H]([C@@H](C)O)NC(=O)[C@H](C(C)C)NC1=O [Compound 1126] ({CH2CO}-NYD[1Nal]V[Bip]R[NMeA][dL]RLVTCA-NH2; thioether N-14)
- IC50: 0.23 µM

SMILES: CC(C)C[C@@H]1NC(=O)[C@H](CCCNC(=N)N)NC(=O)[C@@H](CC(C)C)NC(=O)[C@H](C)N(C)C(=O)[C@H](CCCNC(=N)N)NC(=O)[C@H](Cc2ccc(-c3ccccc3)cc2)NC(=O)[C@H](C(C)C)NC(=O)[C@H](Cc2cccc(C#N)c2)NC(=O)[C@H](CC(=O)O)NC(=O)[C@H](Cc2ccc(O)cc2)NC(=O)[C@H](CC(N)=O)NC(=O)CSC[C@@H](C(=O)N[C@@H](C)C(N)=O)NC(=O)[C@H]([C@@H](C)O)NC(=O)[C@H](C(C)C)NC1=O [Compound 1196] ({CH2CO}-NYD[Phe(3-CN)]V[Bip]R[NMeA][dL]RLVTCA-NH2; thioether N-14)
- IC50: 0.24 µM

SMILES: CC(C)C[C@@H]1NC(=O)[C@H](Cc2c[nH]c3ccccc23)NC(=O)[C@H](CC(=O)O)NC(=O)[C@H](Cc2ccc(OCC(=O)O)cc2)NC(=O)[C@H](Cc2ccccc2)NC(=O)CSC[C@@H](C(N)=O)NC(=O)[C@H](CO)NC(=O)[C@H](C(C)C)NC(=O)[C@H](CC(C)C)NC(=O)[C@H](CC(N)=O)NC(=O)[C@@H](CC(C)C)NC(=O)[C@H](C)N(C)C(=O)[C@H](CCCNC(N)=O)NC(=O)[C@H](Cc2ccc(-c3ccccc3)cc2)NC1=O [Compound 1627] ({CH2CO}-FY(Carboxymethyl)DWL[Bip][Cit][NMeA][dL]NLVSC-NH2; thioether N-14)
- IC50: 0.06 µM

SMILES: CC(C)C[C@@H]1NC(=O)[C@H](CCN)NC(=O)[C@@H](CC(C)C)NC(=O)[C@H](C)N(C)C(=O)[C@H](CCCNC(N)=O)NC(=O)[C@H](Cc2ccc(-c3ccccc3)cc2)NC(=O)[C@H](C(C)C)NC(=O)[C@H](Cc2c[nH]c3ccccc23)NC(=O)[C@H](CC(=O)O)NC(=O)[C@H](Cc2ccc(O)cc2)NC(=O)[C@H](CC(N)=O)NC(=O)CSC[C@@H](C(=O)N[C@@H](C)C(N)=O)NC(=O)[C@H](CCCN)NC(=O)[C@H](C(C)C)NC1=O [Compound 1232] ({CH2CO}-NYDWV[Bip][Cit][NMeA][dL][Dab]LV[Orn]CA-NH2; thioether N-14)
- IC50: 0.12 µM

SMILES: CCCC[C@@H]1NC(=O)[C@H](CCCNC(=N)N)NC(=O)[C@@H](CC(C)C)NC(=O)[C@H](C)N(C)C(=O)[C@H]([C@@H](C)CC)NC(=O)[C@H](Cc2ccc(-c3ccccc3)cc2)NC(=O)[C@H](C(C)C)NC(=O)[C@H](Cc2c[nH]c3ccccc23)NC(=O)[C@H](CC(=O)O)NC(=O)[C@H](Cc2ccc(O)cc2)NC(=O)[C@H](CN)NC(=O)CSC[C@@H](C(=O)N[C@@H](C)C(N)=O)NC(=O)[C@H]([C@@H](C)O)NC(=O)[C@H](C(C)C)NC1=O [Compound 1496] ({CH2CO}-[Dap]YDWV[Bip]I[NMeA][dL]R[Nle]VTCA-NH2; thioether N-14)
- IC50: 0.18 µM

Now those with a lower IC50, led by results:

- IC50: 0.01 µM
SMILES: CC(C)C[C@@H]1NC(=O)[C@H](Cc2c[nH]c3ccccc23)NC(=O)[C@H](CC(=O)O)NC(=O)[C@H](Cc2ccc(C(=O)O)cc2)NC(=O)[C@H](Cc2ccccc2)NC(=O)CSC[C@@H](C(=O)NCC(N)=O)NC(=O)[C@H](CO)NC(=O)[C@H](C(C)C)NC(=O)[C@H](CC(C)C)NC(=O)[C@H](CC(N)=O)NC(=O)[C@@H](CC(C)C)NC(=O)[C@H](C)N(C)C(=O)[C@H](C(C)C)NC(=O)[C@H](Cc2ccc(-c3ccccc3)cc2)NC1=O [Compound 1528] ({CH2CO}-F[Phe(4-COOH)]DWL[Bip]V[NMeA][dL]NLVSCG-NH2; thioether N-14)

- IC50: 0.02 µM
SMILES: CC(C)C[C@H]1NC(=O)[C@H](C)N(C)C(=O)[C@H](C(C)C)NC(=O)[C@H](Cc2ccc(-c3ccccc3)cc2)NC(=O)[C@H](C(C)C)NC(=O)[C@H](Cc2c[nH]c3ccccc23)NC(=O)[C@H](CC(=O)O)NC(=O)[C@H](Cc2ccc(CN)cc2)NC(=O)[C@H](Cc2ccc(OCC(=O)O)cc2)NC(=O)CSC[C@@H](C(N)=O)NC(=O)[C@H](CO)NC(=O)[C@H](C(C)C)NC(=O)[C@H](CC2CCCCC2)NC(=O)[C@H](CC(N)=O)NC1=O [Compound 2243] ({CH2CO}-Y(Carboxymethyl)[Phe(4-CH2NH2)]DWV[Bip]V[NMeA][dL]N[Cha]VSC-NH2; thioether N-14)

- IC50: 0.01 µM
SMILES: CC(C)C[C@@H]1NC(=O)[C@H](Cc2c[nH]c3ccccc23)NC(=O)[C@H](CC(=O)O)NC(=O)[C@H](Cc2ccncc2)NC(=O)[C@H](Cc2ccc(OCC(=O)O)cc2)NC(=O)CSC[C@@H](C(=O)N[C@@H](CC(N)=O)C(N)=O)NC(=O)[C@H]([C@@H](C)O)NC(=O)[C@H](C(C)C)NC(=O)[C@H](CC2CCCCC2)NC(=O)[C@H](CCN)NC(=O)[C@@H](CC(C)C)NC(=O)[C@H](C)N(C)C(=O)[C@H](C(C)C)NC(=O)[C@H](Cc2ccc(-c3ccccc3)cc2)NC1=O [Compound 1902] ({CH2CO}-Y(Carboxymethyl)[4Pal]DWL[Bip]V[NMeA][dL][Dab][Cha]VTCN-NH2; thioether N-14)

- IC50: 0.01 µM
SMILES: CC(C)C[C@@H]1NC(=O)[C@H](Cc2c[nH]c3ccccc23)NC(=O)[C@H](CC(=O)O)NC(=O)[C@H](Cc2ccc(C(=O)O)cc2)NC(=O)[C@H](Cc2ccc(OCC(=O)O)cc2)NC(=O)CSC[C@@H](C(=O)N[C@@H](CO)C(N)=O)NC(=O)[C@H](CO)NC(=O)[C@H](C(C)C)NC(=O)[C@H](CC2CCCCC2)NC(=O)[C@H](CCN)NC(=O)[C@@H](CC(C)C)NC(=O)[C@H](C)N(C)C(=O)[C@H](C(C)C)NC(=O)[C@H](Cc2ccc(-c3ccccc3)cc2)NC1=O [Compound 1913] ({CH2CO}-Y(Carboxymethyl)[Phe(4-COOH)]DWL[Bip]V[NMeA][dL][Dab][Cha]VSCS-NH2; thioether N-14)
